Results as given in patent publication US9499550B2 (BRISTOL-MYERS SQUIBB COMPANY, priority 2012, dated 2016).
Like-named read-outs stand apart in the source and are kept apart here.

Assays:
[1] = system: HCV genotype 1b (Con1) replicon in HUH-7 cells; assay: HCV replicon luciferase reporter assay, genotype 1b; format: cell-based; conditions: Hepatitis C virus, Huh-7, 72 h, 3 days incubation, read-out: LE_1b (EC50, range)
In short: (§1)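 Replicon inhibition for both genotypes was measured as Renilla luciferase signal (EnduRen, 7.5 μM final, 2 h) after 3-day, 37° C exposure of replicon-bearing HUH-7 cells in 4% FCS DMEM, 0.5% DMSO. The 1b construct carries S1179I; the 1a H77 construct carries P1496L and S2204I. Twenty-point, 3-fold dilutions were fitted four-parametrically for EC50, and CC50 was taken from multiplexed Cell Titer-Blue.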

[2] = system: HCV genotype 1a (H77 strain) replicon in HUH-7 cells; assay: HCV replicon luciferase reporter assay, genotype 1a; format: cell-based; conditions: Hepatitis C virus, Huh-7, 72 h, 3 days incubation, read-out: LE_1a (EC50, range)
In short: as §1

[3] = HCV genotype 1b replicon luciferase
[4] = HCV genotype 1a replicon luciferase
[5] = HCV genotype 1b replicon luciferase assay, range class
[6] = HCV genotype 1a replicon luciferase assay, range class
[7] = GETYPE1B, HCV genotype 1b replicon luciferase
[8] = GETYPE1A, HCV genotype 1a replicon luciferase

| Compound | EC50 [1, 3] [nM] | EC50 [2, 4] [nM] | further results |
| --- | --- | --- | --- |
| COc1ccc2c(O[C@@H]3C[C@H]4C(=O)N[C@]5(C(=O)NS(=O)(=O)C6(C)CC6)C[C@H]5/C=C\CC[C@@H](C)C[C@@H](C)[C@H](NC(=O)OC(C)(C)C)C(=O)N4C3)ncc(OC)c2c1 [Compound 4080, tert-butyl (2R,6S,7R,9R,13aS,14aR,16aS,Z)-2-(4,6-dimethoxyisoquinolin-1-yloxy)-7,9-dimethyl-14a-(1-methylcyclopropylsulfonylcarbamoyl)-5,16-dioxo-1,2,3,5,6,7,8,9,10,11,13a,14,14a,15,16,16a-hexadecahydrocyclopropa[e]pyrrolo[1,2-a][1,4]diazacyclopentadecin-6-ylcarbamate] | < 5.46 | < 5.46 | – |
| COCCOc1cnc(O[C@@H]2C[C@H]3C(=O)N[C@]4(C(=O)NS(=O)(=O)C5(C)CC5)C[C@H]4/C=C\CC[C@H](C)C[C@@H](C)[C@H](NC(=O)OC(C)(C)C)C(=O)N3C2)c2ccc(OC)cc12 [Compound 1152, tert-butyl ((2R,6S,7R,9S,13aS,14aR,16aS,Z)-2-((6-methoxy-4-(2-methoxyethoxyl)isoquinolin-1-yl)oxy)-7,9-dimethyl-14a-(((1-methylcyclopropyl)sulfonyl)carbamoyl)-5,16-dioxo-1,2,3,5,6,7,8,9,10,11,13a,14,14a,15,16,16a-hexadecahydrocyclopropa[e]pyrrolo[1,2-a][1,4]diazacyclopentadecin-6-yl)carbamate] | – | – | EC50 [1, 5]: < 5.46 nM; EC50 [2, 6]: < 5.46 nM |
| CC(C)Oc1ccc2c(O[C@@H]3C[C@H]4C(=O)N[C@]5(C(=O)NS(=O)(=O)C6CC6)C[C@H]5/C=C\CC[C@@H](C)C[C@@H](C)[C@H](NC(=O)OC(C)(C)C(F)(F)F)C(=O)N4C3)nccc2c1 [Compound 5148, 1,1,1-trifluoro-2-methylpropan-2-yl((2R,6S,7R,9R,13aS,14aR,16aS,Z)-14a-((cyclopropylsulfonyl)carbamoyl)-2-((6-isopropoxyisoquinolin-1-yl)oxy)-7,9-dimethyl-5,16-dioxo-1,2,3,5,6,7,8,9,10,11,13a,14,14a,15,16,16a-hexadecahydrocyclopropa[e]pyrrolo[1,2-a][1,4]diazacyclopentadecin-6-yl)carbamate] | < 5.46 | < 5.46 | – |
| CCC(C)(OC(=O)N[C@@H]1C(=O)N2C[C@H](Oc3nccc4c5c(ccc34)OCCO5)C[C@H]2C(=O)N[C@]2(C(=O)NS(=O)(=O)C3CC3)C[C@H]2/C=C\CC[C@@H](C)C[C@H]1C)C(F)(F)F (stereo partly shown) [Compound 5260] | – | – | EC50 [1, 7]: < 5.46 nM; EC50 [2, 8]: < 5.46 nM |
| COc1ccc2c(O[C@@H]3C[C@H]4C(=O)N[C@]5(C(=O)NS(=O)(=O)C6CC6)C[C@H]5/C=C\CC[C@@H](C)C[C@@H](C)[C@H](NC(=O)OC(C)(C)C(F)(F)F)C(=O)N4C3)nc(-c3ccc(OC)c(F)c3)cc2c1 [Compound 3056, 1,1,1-trifluoro-2-methylpropan-2-yl((2R,6S,7R,9R,13aS,14aR,16aS,Z)-14a-((cyclopropylsulfonyl)carbamoyl)-2-((3-(3-fluoro-4-methoxyphenyl)-6-methoxyisoquinolin-1-yl)oxy)-7,9-dimethyl-5,16-dioxo-1,2,3,5,6,7,8,9,10,11,13a,14,14a,15,16,16a-hexadecahydrocyclopropa[e]pyrrolo[1,2-a][1,4]diazacyclopentadecin-6-yl)carbamate] | – | – | EC50 [1, 5]: < 5.46 nM; EC50 [2, 6]: < 5.46 nM |
| [2H]C([2H])([2H])C(OC(=O)N[C@@H]1C(=O)N2C[C@H](Oc3nccc4c5c(ccc34)N(C)CCO5)C[C@H]2C(=O)N[C@]2(C(=O)NS(=O)(=O)C3CC3)C[C@H]2/C=C\CC[C@H](C)C[C@H]1C)(C([2H])([2H])[2H])C(F)(F)F [Compound 5279, 1,1,1,3,3,3-hexadeutero-2-(trifluoromethyl)propan-2-yl((2R,6S,7R,9S,13aS,14aR,16aS,Z)-14a-((cyclopropylsulfonyl)carbamoyl)-7,9-dimethyl-2-((4-methyl-3,4-dihydro-2H-[1,4]oxazino[2,3-f]isoquinolin-7-yl)oxy)-5,16-dioxo-1,2,3,5,6,7,8,9,10,11,13a,14,14a,15,16,16a-hexadecahydrocyclopropa[e]pyrrolo[1,2-a][1,4]diazacyclopentadecin-6-yl)carbamate] | 4.82 to 103 | 4.82 to 103 | – |
| COc1cnc(O[C@@H]2C[C@H]3C(=O)N[C@]4(C(=O)NS(=O)(=O)C5(CF)CC5)C[C@H]4/C=C\CC[C@@H](C)C[C@@H](C)[C@H](NC(=O)OC4(C)CCCOC4)C(=O)N3C2)c2ccccc12 (stereo partly drawn) [Compound 1056, 3-methyltetrahydro-2H-pyran-3-yl((2R,6S,7R,9R,13aS,14aR,16aS,Z)-14a-(((1-(fluoromethyl)cyclopropyl)sulfonyl)carbamoyl)-2-((4-methoxyisoquinolin-1-yl)oxy)-7,9-dimethyl-5,16-dioxo-1,2,3,5,6,7,8,9,10,11,13a,14,14a,15,16,16a-hexadecahydrocyclopropa[e]pyrrolo[1,2-a][1,4]diazacyclopentadecin-6-yl)carbamate] | – | – | EC50 [1, 5]: < 5.46 nM; EC50 [2, 6]: < 5.46 nM |
| [2H]C([2H])([2H])C(OC(=O)N[C@@H]1C(=O)N2C[C@H](Oc3nccc4cc(OC(C)C)ccc34)C[C@H]2C(=O)N[C@]2(C(=O)NS(=O)(=O)C3CC3)C[C@H]2/C=C\CC[C@@H](C)C[C@H]1C)(C([2H])([2H])[2H])C([2H])([2H])[2H] [Compound 5155, 1,1,1,3,3,3-hexadeutero-2-(trideuteromethyl)propan-2-yl((2R,6S,7R,9R,13aS,14aR,16aS,Z)-14a-((cyclopropylsulfonyl)carbamoyl)-2-((6-isopropoxyisoquinolin-1-yl)oxy)-7,9-dimethyl-5,16-dioxo-1,2,3,5,6,7,8,9,10,11,13a,14,14a,15,16,16a-hexadecahydrocyclopropa[e]pyrrolo[1,2-a][1,4]diazacyclopentadecin-6-yl)carbamate] | < 5.46 | < 5.46 | – |
| CCn1nc(O[C@@H]2C[C@H]3C(=O)N[C@]4(C(=O)NS(=O)(=O)C5CC5)C[C@H]4/C=C\CC[C@@H](C)C[C@@H](C)[C@H](NC(=O)C(=O)N(C)C)C(=O)N3C2)c2ccccc2c1=O [Compound 5076, N1-((2R,6S,7R,9R,13aS,14aR,16aS,Z)-14a-((cyclopropylsulfonyl)carbamoyl)-2-((3-ethyl-4-oxo-3,4-dihydrophthalazin-1-yl)oxy)-7,9-dimethyl-5,16-dioxo-1,2,3,5,6,7,8,9,10,11,13a,14,14a,15,16,16a-hexadecahydrocyclopropa[e]pyrrolo[1,2-a][1,4]diazacyclopentadecin-6-yl)-N2,N2-dimethyloxalamide] | > 87.4 | > 87.4 | – |
| CCOc1nnc(O[C@@H]2C[C@H]3C(=O)N[C@]4(C(=O)NS(=O)(=O)C5CC5)C[C@H]4/C=C\CC[C@@H](C)C[C@@H](CC)[C@H](NC(=O)OC(C)(C)C)C(=O)N3C2)c2ccccc12 [Compound 5043, tert-butyl ((2R,6S,7R,9R,13aS,14aR,16aS,Z)-14a-((cyclopropylsulfonyl)carbamoyl)-2-((4-ethoxyphthalazin-1-yl)oxy)-7-ethyl-9-methyl-5,16-dioxo-1,2,3,5,6,7,8,9,10,11,13a,14,14a,15,16,16a-hexadecahydrocyclopropa[e]pyrrolo[1,2-a][1,4]diazacyclopentadecin-6-yl)carbamate] | < 5.46 | < 5.46 | – |
| CC[C@@H]1C[C@H](C)CC/C=C\[C@@H]2C[C@@]2(C(=O)NS(=O)(=O)C2(C)CC2)NC(=O)[C@@H]2C[C@@H](Oc3nccc4c5c(ccc34)OCCO5)CN2C(=O)[C@H]1NC(=O)OC(C)(C)C(C)(F)F [Compound 5332, 3,3-difluoro-2-methylbutan-2-yl((2R,6S,7R,9R,13aS,14aR,16aS,Z)-2-((2,3-dihydro-[1,4]dioxino[2,3-f]isoquinolin-7-yl)oxy)-7-ethyl-9-methyl-14a-(((1-methylcyclopropyl)sulfonyl)carbamoyl)-5,16-dioxo-1,2,3,5,6,7,8,9,10,11,13a,14,14a,15,16,16a-hexadecahydrocyclopropa[e]pyrrolo[1,2-a][1,4]diazacyclopentadecin-6-yl)carbamate] | < 5.46 | < 5.46 | – |
| CC[C@@H]1C[C@H](C)CC/C=C\[C@@H]2C[C@@]2(C(=O)NS(=O)(=O)C2(C)CC2)NC(=O)[C@@H]2C[C@@H](Oc3nccc4c5c(ccc34)OCCO5)CN2C(=O)[C@H]1NC(=O)OC(C)(C)C [Compound 5340, tert-butyl ((2R,6S,7R,9R,13aS,14aR,16aS,Z)-2-((2,3-dihydro-[1,4]dioxino[2,3-f]isoquinolin-7-yl)oxy)-7-ethyl-9-methyl-14a-(((1-methylcyclopropyl)sulfonyl)carbamoyl)-5,16-dioxo-1,2,3,5,6,7,8,9,10,11,13a,14,14a,15,16,16a-hexadecahydrocyclopropa[e]pyrrolo[1,2-a][1,4]diazacyclopentadecin-6-yl)carbamate] | < 5.46 | < 5.46 | – |
| CC[C@@H]1C[C@H](C)CC/C=C\[C@@H]2C[C@@]2(C(=O)NS(=O)(=O)C2(C)CC2)NC(=O)[C@@H]2C[C@@H](Oc3cnc4ccc(OC)cc4n3)CN2C(=O)[C@H]1NC(=O)OC(C)(C)C(F)(F)F [Compound 4219] | – | – | EC50 [1, 7]: < 5.46 nM; EC50 [2, 8]: < 5.46 nM |
| CC(C)Oc1ccc2nc(C(F)(F)F)c(O[C@@H]3C[C@H]4C(=O)N[C@]5(C(=O)NS(=O)(=O)C6(C)CC6)C[C@H]5/C=C\CC[C@@H](C)C[C@@H](C)[C@H](NC(=O)OC(C)(C)C(F)(F)F)C(=O)N4C3)nc2c1 [Compound 4336] | – | – | EC50 [1, 7]: 0.51 to 1 nM; EC50 [2, 8]: 0.51 to 1 nM |
